Source: patent US20250340590A1, “PEPTIDE HAVING ANTI-INFLAMMATORY ACTIVITY AND USE THEREOF” (CAREGEN CO., LTD., priority 2021, published 2025)

Key:
Assay type in all cases: cell-based
TNFα [1] = assay: TNFα secretion by ELISA in LPS-induced mouse splenocytes; conditions: LPS 2 μg/mL, peptide at 5 μM and 50 μM, 24 hours
Description: Inflammation was induced in mouse splenocytes, and the secretion amounts of inflammatory cytokines TNFα, IL-1β, and IFNγ were confirmed. In order to induce inflammation, the cells were treated with an inflammation-inducing antigen, LPS, and since TNFα corresponds to a signaling protein associated with inflammation, IL-1β corresponds to a cytokine that promotes inflammation, and IFNγ also corresponds to a cytokine that promotes inflammation, the degree of inflammation can be confirmed by measuring the secretion amounts of TNFα, IL-1B, and IFNγ.
Mouse splenocytes were dispensed into a 24-well plate at a concentration of 1×10^7 cells/well and cultured until the next day. The medium was replaced with serum-free medium, and after 4 hours, the cells were treated with LPS and the peptide of the present invention and then cultured again for another 24 hours. In order to induce inflammation, the cells were treated with LPS at 2 μg/mL, and the peptide at 5 μM and 50 μM, respectively. […]

TNFα [2] = assay: TNFα mRNA level by RT-PCR in LPS-induced mouse splenocytes; conditions: LPS 2 μg/mL, peptide at 5 μM and 50 μM, 24 hours, compared to group not treated with the peptide
Description: Inflammation was induced in mouse splenocytes, and the expression levels of TNFα, and IL-6 genes, which is the inflammatory cytokines were confirmed. In order to induce inflammation, the cells were treated with LPS, an inflammation-inducing antigen, and since TNFα corresponds to a signaling protein associated with inflammation, and IL-6 corresponds to a cytokine that promotes inflammation, the degree of inflammation can be confirmed by measuring the expression levels of TNFα and IL-6 genes.
Mouse splenocytes were dispensed into a 24-well plate at a concentration of 1×10^7 cells/well and cultured until the next day. The medium was replaced with serum-free medium, and after 3 hours, the cells were treated with LPS and the peptide of the present invention and then cultured again for another 24 hours. In order to induce inflammation, the cells were treated with LPS at 2 μg/mL, and the peptide at […] and 50 μM, respectively. […] After quantifying the amount of isolated RNA, cDNA was synthesized using a cDNA synthesis kit (Intron, Korea), PCR was performed using a PCR premix (Intron, Korea) and primers for TNFα, and IL-6. […]

IL-1β = IL-1β mRNA level by RT-PCR in TNFα-induced mouse splenocytes; conditions: TNFα 20 nM, peptide at 5 μM and 50 μM, 3 hours, compared to group not treated with the peptide
Description: In order to further confirm the anti-inflammatory effect of the peptide treatment of the present invention in addition to the results of Experimental Example <3-1>, inflammation was induced by treating mouse splenocytes with TNFα, and the expression levels of inflammatory cytokines TNFα and IL-1β, and Cox2, which is an inflammation-inducing marker, genes were confirmed. In order to induce inflammation, the cells were treated with cytokine TNFα, and since TNFα corresponds to a signaling protein associated with inflammation, IL-1β corresponds to a cytokine that promotes inflammation, and Cox2 is a protein associated with inflammation, the degree of inflammation can be confirmed by measuring the expression levels of TNFα, Cox2, and IL-1β genes.
Mouse splenocytes were dispensed into a 24-well plate at a concentration of 1× 10^7 cells/well and cultured until the next day. The medium was replaced with serum-free medium, and after 3 hours, the cells were treated with TNFα and the peptide of the present invention and then cultured for another 3 hours. In order to induce inflammation, the cells were treated with TNFα at 20 nM, and the peptide at 5 μM and 50 μM, respectively. […] After quantifying the amount of isolated RNA, cDNA was synthesized using a cDNA synthesis kit (Intron, Korea), PCR was performed using a PCR premix (Intron, Korea) and primers for TNFα, Cox2, and IL-1B. […]

TWNS [peptide of the present invention]
decreased: secretion amount of TNFα (TNFα [1]) | mRNA expression level of TNFα (TNFα [2]) | mRNA expression level of IL-1β (IL-1β)
